Square brackets hold non-standard residues; d marks the D form. Peptide text beside a SMILES is read from it. * marks the point of attachment. Phe(3,4-(OMe)2) = COc1ccc(C[C@H](N)C(=O)O)cc1OC; Pro(trans-4-F) = O=C(O)[C@@H]1C[C@@H](F)CN1; Phe(4-CN) = N#Cc1ccc(C[C@H](N)C(=O)O)cc1; Phe(4-Cl) = N[C@@H](Cc1ccc(Cl)cc1)C(=O)O; Phe(4-NH2) = Nc1ccc(C[C@H](N)C(=O)O)cc1; Pro(4,4-F2) = O=C(O)[C@@H]1CC(F)(F)CN1; Dab(3S-OH) = NC[C@H](O)[C@H](N)C(=O)O; 4Pal = N[C@@H](Cc1ccncc1)C(=O)O; ΔZArg = N=C(N)NCC/C=C(\N)C(=O)O; NMeK = CN[C@@H](CCCCN)C(=O)O; dOrn = NCCC[C@@H](N)C(=O)O; Orn = NCCC[C@H](N)C(=O)O; Aze = O=C(O)[C@@H]1CCN1; Dab = NCC[C@H](N)C(=O)O; NH(CH2)4NH2 = NCCCCN*
Experiments:
Experiment in all cases: MIC, broth microdilution (CLSI), reference strain
Conditions in all cases: CAMHB
[1] = system: Staphylococcus aureus ATCC 13709
[2] = system: Escherichia coli ATCC 25922
[3] = system: Acinetobacter baumannii ATCC 19606
[4] = system: Pseudomonas aeruginosa ATCC 27853

| Compound | Sa: MIC Staphylococcus aureus ATCC 13709 [1] | Ec: MIC Escherichia coli ATCC 25922 [2] | Ab: MIC Acinetobacter baumannii ATCC 19606 [3] | Pa: MIC Pseudomonas aeruginosa ATCC 27853 [4] |
| --- | --- | --- | --- | --- |
| COc1ccc(C[C@H](NC(=O)[C@@H]2CCCN2C(=O)[C@@H](CCCN)NC(=O)CNC(=O)[C@@H](NC(=O)[C@@H](NC(=O)[C@@H](N)CCCCN)[C@@H](O)CN)[C@@H](O)CN)C(=O)N[C@@H](CCCCN)C(=O)N/C(=C\CCNC(=N)N)C(=O)O)cc1OC [22.34] (H-K[Dab(3S-OH)][Dab(3S-OH)]G[dOrn]P[Phe(3,4-(OMe)2)]K[ΔZArg]-OH) | ++ (≤8 μg/mL) | ++ (≤8 μg/mL) | − (>32 μg/mL) | − (>32 μg/mL) |
| N#Cc1ccc(C[C@H](NC(=O)[C@@H]2CCCN2C(=O)[C@@H](CCCN)NC(=O)CNC(=O)[C@H](CCN)NC(=O)[C@@H](NC(=O)[C@@H](N)CCCCN)[C@@H](O)CN)C(=O)N[C@@H](CCCCN)C(=O)N/C(=C\CCNC(=N)N)C(=O)O)cc1 [21.9] (H-K[Dab(3S-OH)][Dab]G[dOrn]P[Phe(4-CN)]K[ΔZArg]-OH) | ++ (≤8 μg/mL) | ++ (≤8 μg/mL) | − (>32 μg/mL) | − (>32 μg/mL) |
| N=C(N)NCC/C=C(\NC(=O)[C@H](CCCCN)NC(=O)[C@H](Cc1cnc[nH]1)NC(=O)[C@@H]1CCCN1C(=O)[C@@H](CCCN)NC(=O)CNC(=O)CNC(=O)[C@@H](NC(=O)[C@@H](N)CCCCN)[C@@H](O)CN)C(=O)N[C@@H](CCCCN)C(=O)NCCCCN [23.1] (H-K[Dab(3S-OH)]GG[dOrn]PHK[ΔZArg]K-{NH(CH2)4NH2}) | ++ (≤8 μg/mL) | ++ (≤8 μg/mL) | − (>32 μg/mL) | − (>32 μg/mL) |
| N#Cc1ccc(C[C@H](NC(=O)[C@@H]2CCCN2C(=O)[C@@H](CCCN)NC(=O)CNC(=O)[C@@H](NC(=O)[C@@H](NC(=O)[C@@H](N)CCCCN)[C@@H](O)CN)[C@@H](O)CN)C(=O)N[C@@H](CCCCN)C(=O)N/C(=C\CCNC(=N)N)C(=O)O)cc1 [22.38] (H-K[Dab(3S-OH)][Dab(3S-OH)]G[dOrn]P[Phe(4-CN)]K[ΔZArg]-OH) | ++ (≤8 μg/mL) | ++ (≤8 μg/mL) | − (>32 μg/mL) | − (>32 μg/mL) |
| C[C@H](NC(=O)[C@H](CCN)NC(=O)[C@@H](N)CCCCN)C(=O)NCC(=O)N[C@H](CCCN)C(=O)N1CC(F)(F)C[C@H]1C(=O)N[C@@H](Cc1cnc[nH]1)C(=O)N[C@@H](CCCCN)C(=O)N/C(=C\CCNC(=N)N)C(=O)N[C@@H](CCCCN)C(=O)NCCCCN [14.10] (H-K[Dab]AG[dOrn][Pro(4,4-F2)]HK[ΔZArg]K-{NH(CH2)4NH2}) | ++ (≤8 μg/mL) | − (>32 μg/mL) | − (>32 μg/mL) | − (>32 μg/mL) |
| C[C@@H](O)[C@H](NC(=O)[C@H](CCN)NC(=O)[C@@H](N)CCCCN)C(=O)NCC(=O)N[C@H](CCCN)C(=O)N1CCC[C@H]1C(=O)N[C@@H](Cc1cnc[nH]1)C(=O)N[C@@H](CCCCN)C(=O)N/C(=C\CCNC(=N)N)C(=O)N[C@@H](CCCCN)C(=O)NCCCCN [15.3] (H-K[Dab]TG[dOrn]PHK[ΔZArg]K-{NH(CH2)4NH2}) | ++ (≤8 μg/mL) | − (>32 μg/mL) | − (>32 μg/mL) | − (>32 μg/mL) |
| N=C(N)NCC/C=C(\NC(=O)[C@H](CCCCN)NC(=O)[C@H](Cc1cnc[nH]1)NC(=O)[C@@H]1CCCN1C(=O)[C@@H](CCCN)NC(=O)CNC(=O)[C@@H](NC(=O)[C@@H](NC(=O)[C@H](N)CCCCN)[C@@H](O)CN)[C@@H](O)CN)C(=O)N[C@@H](CCCCN)C(=O)NCCCCN [22.6] (H-[dK][Dab(3S-OH)][Dab(3S-OH)]G[dOrn]PHK[ΔZArg]K-{NH(CH2)4NH2}) | ++ (≤8 μg/mL) | + (≤32 μg/mL) | − (>32 μg/mL) | − (>32 μg/mL) |

The next lines start with the values.

| Sa: MIC Staphylococcus aureus ATCC 13709 [1] | Ec: MIC Escherichia coli ATCC 25922 [2] | Ab: MIC Acinetobacter baumannii ATCC 19606 [3] | Pa: MIC Pseudomonas aeruginosa ATCC 27853 [4] | Compound |
| --- | --- | --- | --- | --- |
| ++ (≤8 μg/mL) | ++ (≤8 μg/mL) | − (>32 μg/mL) | − (>32 μg/mL) | CN[C@@H](CCCCN)C(=O)N[C@H](C(=O)N[C@@H](C)C(=O)NCC(=O)N[C@H](CCCN)C(=O)N1CCC[C@H]1C(=O)N[C@@H](Cc1cnc[nH]1)C(=O)N[C@@H](CCCCN)C(=O)N/C(=C\CCNC(=N)N)C(N)=O)[C@@H](O)CN [24.63] (H-[NMeK][Dab(3S-OH)]AG[dOrn]PHK[ΔZArg]-NH2) |
| + (≤32 μg/mL) | − (>32 μg/mL) | − (>32 μg/mL) | − (>32 μg/mL) | C[C@H](NC(=O)[C@@H](NC(=O)[C@@H](N)CCCCN)[C@@H](O)CN)C(=O)NCC(=O)N[C@H](CCCN)C(=O)N1CCC[C@H]1C(=O)N[C@@H](Cc1ccncc1)C(=O)N[C@@H](CCCCN)C(=O)N/C(=C\CCNC(=N)N)C(=O)O [24.108] (H-K[Dab(3S-OH)]AG[dOrn]P[4Pal]K[ΔZArg]-OH) |
| + (≤32 μg/mL) | − (>32 μg/mL) | − (>32 μg/mL) | − (>32 μg/mL) | CC(=O)NCCCC[C@H](N)C(=O)N[C@H](C(=O)N[C@@H](C)C(=O)NCC(=O)N[C@H](CCCN)C(=O)N1CCC[C@H]1C(=O)N[C@@H](Cc1cnc[nH]1)C(=O)N[C@@H](CCCCN)C(=O)N/C(=C\CCNC(=N)N)C(=O)N[C@@H](CCCCN)C(=O)NCCCCN)[C@@H](O)CN [24.9] (H-K(Ac)[Dab(3S-OH)]AG[dOrn]PHK[ΔZArg]K-{NH(CH2)4NH2}) |
| ++ (≤8 μg/mL) | − (>32 μg/mL) | − (>32 μg/mL) | − (>32 μg/mL) | C[C@H](NC(=O)[C@@H](NC(=O)[C@@H](N)CCCCN)[C@@H](O)CN)C(=O)NCC(=O)N[C@H](CCCN)C(=O)N1CCC[C@H]1C(=O)N[C@@H](CCC(=O)O)C(=O)N[C@@H](CCCCN)C(=O)N/C(=C\CCNC(=N)N)C(=O)N[C@@H](CCCCN)C(=O)NCCCCN [24.118] (H-K[Dab(3S-OH)]AG[dOrn]PEK[ΔZArg]K-{NH(CH2)4NH2}) |
| ++ (≤8 μg/mL) | ++ (≤8 μg/mL) | + (≤32 μg/mL) | ++ (≤8 μg/mL) | N=C(N)NCC/C=C(\NC(=O)[C@H](CCCCN)NC(=O)[C@H](Cc1cnc[nH]1)NC(=O)[C@@H]1CCCN1C(=O)[C@@H](CCCN)NC(=O)CNC(=O)[C@H](CCCN)NC(=O)[C@@H](NC(=O)[C@@H](N)CCCCN)[C@@H](O)CN)C(=O)N[C@@H](CCCCN)C(=O)NCCCCN [211.1] (H-K[Dab(3S-OH)][Orn]G[dOrn]PHK[ΔZArg]K-{NH(CH2)4NH2}) |
| + (≤32 μg/mL) | + (≤32 μg/mL) | − (>32 μg/mL) | − (>32 μg/mL) | C[C@H](NC(=O)[C@@H](NC(=O)[C@@H](N)CCCCN)[C@@H](O)CN)C(=O)NCC(=O)N[C@H](CCCN)C(=O)N1CCC[C@H]1C(=O)N[C@@H](Cc1ccc(N)cc1)C(=O)N[C@@H](CCCCN)C(=O)N/C(=C\CCNC(=N)N)C(=O)O [24.105] (H-K[Dab(3S-OH)]AG[dOrn]P[Phe(4-NH2)]K[ΔZArg]-OH) |
| ++ (≤8 μg/mL) | + (≤32 μg/mL) | − (>32 μg/mL) | − (>32 μg/mL) | C[C@H](NC(=O)[C@@H](NC(=O)[C@@H](N)CCCCN)[C@@H](O)CN)C(=O)NCC(=O)N[C@H](CCCN)C(=O)N1CC[C@H]1C(=O)N[C@@H](Cc1ccc(Cl)cc1)C(=O)N[C@@H](CCCCN)C(=O)N/C(=C\CCNC(=N)N)C(=O)O [24.72] (H-K[Dab(3S-OH)]AG[dOrn][Aze][Phe(4-Cl)]K[ΔZArg]-OH) |
| + (≤32 μg/mL) | + (≤32 μg/mL) | − (>32 μg/mL) | − (>32 μg/mL) | C[C@H](NC(=O)[C@@H](NC(=O)[C@@H](N)CCCCN)[C@@H](O)CN)C(=O)NCC(=O)N[C@H](CCCN)C(=O)N1CC[C@H]1C(=O)N[C@@H](Cc1cnc[nH]1)C(=O)N[C@@H](CCCCN)C(=O)N/C(=C\CCNC(=N)N)C(=O)O [24.73] (H-K[Dab(3S-OH)]AG[dOrn][Aze]HK[ΔZArg]-OH) |
| + (≤32 μg/mL) | + (≤32 μg/mL) | − (>32 μg/mL) | − (>32 μg/mL) | C[C@H](NC(=O)[C@@H](NC(=O)[C@@H](N)CCCCN)[C@@H](O)CN)C(=O)NCC(=O)N[C@H](CCCN)C(=O)N1C[C@H](F)C[C@H]1C(=O)N[C@@H](Cc1cnc[nH]1)C(=O)N[C@@H](CCCCN)C(=O)N/C(=C\CCNC(=N)N)C(=O)O [24.142] (H-K[Dab(3S-OH)]AG[dOrn][Pro(trans-4-F)]HK[ΔZArg]-OH) |

From US10626144B2, “Peptide derivatives and uses thereof” (Nosopharm, priority 2014, dated 2020)
